{
  "source": "paper PMC11845477",
  "about": "“Exploring the principles behind antibiotics with limited resistance” (Nature Communications, 2025)",
  "tested_on": "K. pneumoniae ATCC 10031 (SEN) and K. pneumoniae ATCC 700603 (MDR)",
  "assay": "Adaptive laboratory evolution (ALE), relative MIC of evolved lines",
  "assay_type": "cell-based, Klebsiella pneumoniae",
  "in_short": "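Ten parallel populations per antibiotic–ancestor pair were evolved in MHB at 37 °C, starting near 50% growth-inhibiting drug. Every 72 h they were passaged into 0.5–2.5× increasing concentrations, keeping the highest-drug well with OD600 > 0.2.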",
  "key": {"[1]": {"settings": "KP-MDR (Klebsiella pneumoniae ATCC 700603), evolved line 6"}, "[2]": {"settings": "KP-MDR (Klebsiella pneumoniae ATCC 700603), evolved line 8"}, "[3]": {"settings": "KP-MDR (Klebsiella pneumoniae ATCC 700603), evolved line 10"}, "[4]": {"settings": "KP-SEN (Klebsiella pneumoniae ATCC 10031), evolved line 1"}, "[5]": {"settings": "KP-SEN (Klebsiella pneumoniae ATCC 10031), evolved line 3"}, "[6]": {"settings": "KP-SEN (Klebsiella pneumoniae ATCC 10031), evolved line 4"}, "[7]": {"settings": "KP-SEN (Klebsiella pneumoniae ATCC 10031), evolved line 6"}, "[8]": {"settings": "KP-SEN (Klebsiella pneumoniae ATCC 10031), evolved line 10"}},
  "note": "Where a SMILES comes first, the peptide text is derived from it. Bridges are numbered along the chain shown (N, C = ends). [ ]: non-standard residue; d: D form. The star is where a group is joined. X1 = NC[C@@H](CC(=O)*)c1cccc(Cl)c1; Dab = NCC[C@H](N)C(=O)O; Dap = NC[C@H](N)C(=O)O",
  "data": [
    {"molecule": "CC(C)C[C@@H]1NC(=O)[C@@H](Cc2ccccc2)NC(=O)[C@H](CCN)NC(=O)[C@@H](NC(=O)[C@H](CN)NC(=O)[C@@H](NC(=O)C[C@H](CN)c2cccc(Cl)c2)[C@@H](C)O)CCNC(=O)[C@H]([C@@H](C)O)NC(=O)[C@H](CCN)NC(=O)[C@H](CCN)NC1=O", "note": "[SPR206] (X1-T[Dap][Dab][Dab][dF]L[Dab][Dab]T; lactam 3-C (inferred); N-terminus assumed)", "values": [
      {"measurement": "Relative MIC", "setting": "KP-MDR (Klebsiella pneumoniae ATCC 700603), evolved line 5", "value": 256},
      {"measurement": "Relative MIC", "setting": "[1]", "value": 512},
      {"measurement": "Relative MIC (log10)", "setting": "[1]", "value": 2.709, "unit": "log10"},
      {"measurement": "Relative MIC", "setting": "KP-MDR (Klebsiella pneumoniae ATCC 700603), evolved line 7", "value": 512},
      {"measurement": "Relative MIC", "setting": "[2]", "value": 1024},
      {"measurement": "Relative MIC (log10)", "setting": "[2]", "value": 3.0103, "unit": "log10"},
      {"measurement": "Relative MIC", "setting": "KP-MDR (Klebsiella pneumoniae ATCC 700603), evolved line 9", "value": 1024},
      {"measurement": "Relative MIC", "setting": "[3]", "value": 512},
      {"measurement": "Relative MIC (log10)", "setting": "[3]", "value": 2.709, "unit": "log10"},
      {"measurement": "MIC of evolved line", "setting": "KP-SEN (K. pneumoniae ATCC 10031), evolved line 1 of the given antibiotic", "value": 1020, "unit": "mg/L"},
      {"measurement": "Relative MIC", "setting": "KP-SEN (K. pneumoniae ATCC 10031), evolved line 1 vs ancestor", "value": 2048},
      {"measurement": "MIC of evolved line", "setting": "KP-SEN (K. pneumoniae ATCC 10031), evolved line 2 of the given antibiotic", "value": 1, "unit": "mg/L"},
      {"measurement": "Relative MIC", "setting": "KP-SEN (K. pneumoniae ATCC 10031), evolved line 2 vs ancestor", "value": 2},
      {"measurement": "MIC of evolved line", "setting": "KP-SEN (K. pneumoniae ATCC 10031), evolved line 3 of the given antibiotic", "value": 1020, "unit": "mg/L"},
      {"measurement": "Relative MIC", "setting": "KP-SEN (K. pneumoniae ATCC 10031), evolved line 3 vs ancestor", "value": 2048},
      {"measurement": "MIC of evolved line", "setting": "KP-SEN (K. pneumoniae ATCC 10031), evolved line 4 of the given antibiotic", "value": 1020, "unit": "mg/L"},
      {"measurement": "Relative MIC", "setting": "KP-SEN (K. pneumoniae ATCC 10031), evolved line 4 vs ancestor", "value": 2048},
      {"measurement": "MIC of evolved line", "setting": "KP-SEN (K. pneumoniae ATCC 10031), evolved line 6 of the given antibiotic", "value": 1020, "unit": "mg/L"},
      {"measurement": "Relative MIC", "setting": "KP-SEN (K. pneumoniae ATCC 10031), evolved line 6 vs ancestor", "value": 2048},
      {"measurement": "MIC of evolved line", "setting": "KP-SEN (K. pneumoniae ATCC 10031), evolved line 7 of the given antibiotic", "value": 1, "unit": "mg/L"},
      {"measurement": "Relative MIC", "setting": "KP-SEN (K. pneumoniae ATCC 10031), evolved line 7 vs ancestor", "value": 2},
      {"measurement": "MIC of evolved line", "setting": "KP-SEN (K. pneumoniae ATCC 10031), evolved line 8 of the given antibiotic", "value": 1, "unit": "mg/L"},
      {"measurement": "Relative MIC", "setting": "KP-SEN (K. pneumoniae ATCC 10031), evolved line 8 vs ancestor", "value": 2},
      {"measurement": "MIC of evolved line", "setting": "KP-SEN (K. pneumoniae ATCC 10031), evolved line 10 of the given antibiotic", "value": 1020, "unit": "mg/L"},
      {"measurement": "Relative MIC", "setting": "KP-SEN (K. pneumoniae ATCC 10031), evolved line 10 vs ancestor", "value": 2048},
      {"measurement": "Relative MIC", "setting": "[4]", "value": 2048},
      {"measurement": "Relative MIC (log10)", "setting": "[4]", "value": 3.311, "unit": "log10"},
      {"measurement": "Relative MIC", "setting": "KP-SEN (Klebsiella pneumoniae ATCC 10031), evolved line 2", "value": 2},
      {"measurement": "Relative MIC", "setting": "[5]", "value": 2048},
      {"measurement": "Relative MIC (log10)", "setting": "[5]", "value": 3.311, "unit": "log10"},
      {"measurement": "Relative MIC", "setting": "[6]", "value": 2048},
      {"measurement": "Relative MIC (log10)", "setting": "[6]", "value": 3.311, "unit": "log10"},
      {"measurement": "Relative MIC", "setting": "[7]", "value": 2048},
      {"measurement": "Relative MIC (log10)", "setting": "[7]", "value": 3.311, "unit": "log10"},
      {"measurement": "Relative MIC", "setting": "KP-SEN (Klebsiella pneumoniae ATCC 10031), evolved line 8", "value": 2},
      {"measurement": "Relative MIC", "setting": "[8]", "value": 2048},
      {"measurement": "Relative MIC (log10)", "setting": "[8]", "value": 3.311, "unit": "log10"},
      {"measurement": "Relative MIC", "setting": "KP-SEN, Klebsiella pneumoniae ATCC 10031, evolved line 7", "value": 2},
      {"measurement": "Relative MIC", "setting": "Klebsiella pneumoniae ATCC 10031 (KP-SEN), evolved line 1", "value": 2048},
      {"measurement": "Relative MIC", "setting": "Klebsiella pneumoniae ATCC 10031 (KP-SEN), evolved line 2", "value": 2},
      {"measurement": "Relative MIC", "setting": "Klebsiella pneumoniae ATCC 10031 (KP-SEN), evolved line 3", "value": 2048},
      {"measurement": "Relative MIC", "setting": "Klebsiella pneumoniae ATCC 10031 (KP-SEN), evolved line 4", "value": 2048},
      {"measurement": "Relative MIC", "setting": "Klebsiella pneumoniae ATCC 10031 (KP-SEN), evolved line 6", "value": 2048},
      {"measurement": "Relative MIC", "setting": "Klebsiella pneumoniae ATCC 10031 (KP-SEN), evolved line 7", "value": 2},
      {"measurement": "Relative MIC", "setting": "Klebsiella pneumoniae ATCC 10031 (KP-SEN), evolved line 8", "value": 2},
      {"measurement": "Relative MIC", "setting": "Klebsiella pneumoniae ATCC 10031 (KP-SEN), evolved line 10", "value": 2048},
      {"measurement": "Relative MIC", "setting": "Klebsiella pneumoniae ATCC 700603 (KP-MDR), evolved line 1", "value": 256},
      {"measurement": "Relative MIC", "setting": "Klebsiella pneumoniae ATCC 700603 (KP-MDR), evolved line 2", "value": 1024},
      {"measurement": "Relative MIC", "setting": "Klebsiella pneumoniae ATCC 700603 (KP-MDR), evolved line 3", "value": 512},
      {"measurement": "Relative MIC", "setting": "Klebsiella pneumoniae ATCC 700603 (KP-MDR), evolved line 4", "value": 256},
      {"measurement": "Relative MIC", "setting": "Klebsiella pneumoniae ATCC 700603 (KP-MDR), evolved line 5", "value": 256},
      {"measurement": "Relative MIC", "setting": "Klebsiella pneumoniae ATCC 700603 (KP-MDR), evolved line 6", "value": 512},
      {"measurement": "Relative MIC", "setting": "Klebsiella pneumoniae ATCC 700603 (KP-MDR), evolved line 7", "value": 512},
      {"measurement": "Relative MIC", "setting": "Klebsiella pneumoniae ATCC 700603 (KP-MDR), evolved line 8", "value": 1024},
      {"measurement": "Relative MIC", "setting": "Klebsiella pneumoniae ATCC 700603 (KP-MDR), evolved line 9", "value": 1024},
      {"measurement": "Relative MIC", "setting": "Klebsiella pneumoniae ATCC 700603 (KP-MDR), evolved line 10", "value": 512}
    ]}
  ]
}
